# Residues, ends and D or L forms follow the SMILES beside them.
# Experiments:
# [1] = test system: rat model of radiocontrast dye-induced renal failure; test: Example 39: radiocontrast dye-induced renal failure; type: in vivo
# Description: Animal Model: A rat model of radiocontrast dye-induced renal failure as described by Agmon, et al., J. Clin. Invest. 94:1069-1075 (1994) will be used. As in humans, radiocontrast dyes are generally non-toxic when administered to animals with normal renal function. However, radiocontrast dyes can induce ARI in animals with impaired renal function. In this model, impaired renal function will be induced by the administration of indomethacin (10 mg/kg) and L-NAME (10 mg/kg). Animals will be assigned to one of the following groups:
# 2. Indomethcin and L-NAME administered 15 minutes apart, followed by iothalamate (6 mL/kg) (n=7)
# 3. peptide conjugates (3 mg/kg, i.p.) administered 15 minutes prior to indomethacin/L-NAME/iothalamate administration as described in Group 2; second dose of peptide conjugates (3 mg/kg) administered immediately after drug exposure (n=9).
# 4. aromatic-cationic peptides (an equivalent molar dose of aromatic-cationic peptide based on the concentration of the aromatic-cationic peptide administered in the peptide conjugate treatment group) administered 15 minutes prior to indomethacin/L-NAME/iothalamate administration as described in Group 2; second dose of aromatic-cationic peptides (an equivalent molar dose of aromatic-cationic peptide based on the concentration of the aromatic-cationic peptide administered in the peptide conjugate treatment group) administered immediately after drug exposure (n=9).
# 5. […]
# Renal Function: Renal function will be assessed by determining GFR at baseline and 24 hours following dye administration. GFR will be determined by creatinine clearance which will be estimated over a 24 hour interval before and after dye administration. Creatinine clearance will be analyzed by measuring plasma and urinary creatinine levels (Bioassay Systems; DICT-500) and urine volume.
# Renal Histology: Kidneys will be fixed in 10% neutral-buffered formalin and embedded in paraffin wax for sectioning. Three-micron sections will be stained with hematoxylin-eosin (H&E) and periodic acid-Schiff (PAS) and analyzed by light microscopy by a board certified pathologist. […]
# [2] = test system: subjects at risk for developing hyperalgesia; test: Prevention of neuropathy or hyperalgesia in at-risk humans; type: in vivo, human; conditions: s.c., once daily
# Excerpt: Subjects at risk for developing hyperalgesia will be recruited as they present in clinic for the treatment of conditions associated with the development of peripheral neuropathy or hyperalgesia. Independent studies will address neuropathy and hyperalgesia resulting from, caused by, or otherwise associated with genetic disorders, metabolic/endocrine complications, inflammatory diseases, vitamin deficiencies, malignant diseases, and toxicity, such as alcohol, organic metal, heavy metal, radiation, and drug toxicity. Subjects will be selected such that they are at risk for developing a single type of neuropathy or hyperalgesia, having no risk factors outside the scope of the study in which the subject is enrolled, and as yet not having symptoms associated with neuropathy or hyperalgesia. Subjects will be screened for their willingness to enroll in the study, and informed consent will be obtained. […]
# After a focused interview about the medical history, baseline measurements of touch and sharpness detection thresholds, grooved pegboard tests, and thermal detection thresholds will be determined according to the methods described above, with statistical analysis as described above. […]
# Subjects will be evaluated weekly during the trial for sharpness detection thresholds, grooved pegboard tests, and thermal detection thresholds. […]
# [3] = test system: SN-4741 cells; test: Example 31: MPP^+ toxicity (Hoechst 33342); type: cell-based; conditions: 50 μM MPP^+, 48 hours
# Description: SN-4741 cells will be treated with buffer; 50 μM MPP^+; 50 μM MPP^+ and peptide conjugates; 50 μM MPP^+ and aromatic-cationic peptides; or 50 μM MPP^+ and SPN10(s); or 50 μM MPP^+ and SPN10(s) with aromatic-cationic peptides for 48 hours. Apoptosis will be measured by fluorescent microscopy with Hoechst 33342.
structure (smiles),measurement,setting,value
"N=C(N)NCCC[C@H](NC(=O)[C@@H](N)Cc1c[nH]c2ccccc12)C(=O)N[C@@H](Cc1c[nH]c2ccccc12)C(=O)N[C@@H](CCCCN)C(N)=O [SPN10, H-L-Trp-L-Arg-L-Trp-L-Lys-NH2] (H-WRWK-NH2)",number of apoptotic cells in contrast dye-exposed kidneys,[1]; TUNEL,reduce the number of apoptotic cells
same,loss of renal brush border and vacuolization (PAS),[1]; contrast dye-exposed kidneys,attenuated
same,decline in renal function (GFR) after contrast dye,"[1]; indomethacin, L-NAME, iothalamate, treatment before and after dye",reduce the decline in renal function
same,development of neuropathy or hyperalgesia,[2],attenuated
same,number of apoptotic cells after MPP^+,[3],reduce the number of apoptotic cells
